Results from ChEMBL document CHEMBL1130041, “Halogenated 4-(phenoxymethyl)piperidines as potential radiolabeled probes for sigma-1 receptors: in vivo evaluation of [123I]-1-(iodopropen-2-yl)-4-[(4-cyanophenoxy)methyl]pip eri dine” (J Med Chem, 1997).

Assays:
Rattus norvegicus [1] = species on record: Rattus norvegicus; assay: Biodistribution of [123I]-label in rat kidneys was reported at 0.33 hr post injection. Value shown is %ID/g of tissue; format: ADME, organism-based, Kidney; conditions: in vivo
Rattus norvegicus [2] = species on record: Rattus norvegicus; assay: Biodistribution of [123I]-label in rat lung was reported at 0.33 hr post injection. Value shown is %ID/g of tissue; format: ADME, organism-based; conditions: in vivo
Rattus norvegicus [3] = species on record: Rattus norvegicus; assay: Biodistribution of [123I]-label in rat intestine was reported at 4 hr post injection. Value shown is %ID/g of tissue; format: ADME, organism-based; conditions: in vivo
Rattus norvegicus [4] = species on record: Rattus norvegicus; assay: Biodistribution of [123I]-label in rat thyroid was reported at 0.33 hr post injection. Value shown is %ID/organ; format: ADME, organism-based, Thyroid gland; conditions: in vivo
Rattus norvegicus [5] = species on record: Rattus norvegicus; assay: Distribution of [123I]-label in rat brain (diencephalon) was reported at 60 min post injection. Value shown is %ID/g of tissue; format: ADME, organism-based; conditions: in vivo, 1 h
Rattus norvegicus [6] = species on record: Rattus norvegicus; assay: Biodistribution of [123I]-label in rat thyroid was reported at 4 hr post injection. Value shown is %ID/organ; format: ADME, organism-based, Thyroid gland; conditions: in vivo
Rattus norvegicus [7] = species on record: Rattus norvegicus; assay: Biodistribution of [123I]-label in rat brain was reported at 1 hr post injection. Value shown is %ID/g of tissue; format: ADME, organism-based; conditions: in vivo
Rattus norvegicus [8] = species on record: Rattus norvegicus; assay: Biodistribution of [123I]-label in rat thyroid was reported at 1 hr post injection. Value shown is %ID/organ; format: ADME, organism-based, Thyroid gland; conditions: in vivo
Rattus norvegicus [9] = species on record: Rattus norvegicus; assay: Biodistribution of [123I]-label in rat blood was reported at 0.33 hr post injection. Value shown is %ID/g of tissue; format: ADME, organism-based; conditions: in vivo
[10] = target: Sigma non-opioid intracellular receptor 1 (Homo sapiens, UniProt Q99720); assay: 50% inhibitory dose against sigma receptor; format: functional
Sequence of Sigma non-opioid intracellular receptor 1 (Q99720 whole entry): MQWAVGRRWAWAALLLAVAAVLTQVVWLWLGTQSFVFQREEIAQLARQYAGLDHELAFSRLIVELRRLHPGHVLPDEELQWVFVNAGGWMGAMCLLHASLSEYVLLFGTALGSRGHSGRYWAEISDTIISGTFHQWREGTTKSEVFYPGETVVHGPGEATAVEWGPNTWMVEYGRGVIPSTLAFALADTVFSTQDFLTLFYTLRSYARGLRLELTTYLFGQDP

Rattus norvegicus [11] = species on record: Rattus norvegicus; assay: Biodistribution of [123I]-label in rat brain was reported at 0.33 hr post injection. Value shown is %ID/organ; format: ADME, organism-based; conditions: in vivo
Rattus norvegicus [12] = species on record: Rattus norvegicus; assay: Biodistribution of [123I]-label in rat kidneys was reported at 4 hr post injection. Value shown is %ID/g of tissue; format: ADME, organism-based, Kidney; conditions: in vivo
Rattus norvegicus [13] = species on record: Rattus norvegicus; assay: Distribution of [123I]-label in rat brain (midbrain) was reported at 20 min post injection. Value shown is %ID/g of tissue; format: ADME, organism-based; conditions: in vivo
Rattus norvegicus [14] = species on record: Rattus norvegicus; assay: Biodistribution of [123I]-label in rat brain was reported at 4 hr post injection. Value shown is %ID/organ; format: ADME, organism-based; conditions: in vivo
Rattus norvegicus [15] = species on record: Rattus norvegicus; assay: Biodistribution of [123I]-label in rat thyroid was reported at 2 hr post injection. Value shown is %ID/organ; format: ADME, organism-based, Thyroid gland; conditions: in vivo
Rattus norvegicus [16] = species on record: Rattus norvegicus; assay: Distribution of [123I]-label in rat brain (hippocampus) was reported at 20 min post injection. Value shown is %ID/g of tissue; format: ADME, organism-based; conditions: in vivo
Rattus norvegicus [17] = species on record: Rattus norvegicus; assay: Biodistribution of [123I]-label in rat brain was reported at 24 hr post injection. Value shown is %ID/organ; format: ADME, organism-based; conditions: in vivo
Rattus norvegicus [18] = species on record: Rattus norvegicus; assay: Biodistribution of [123I]-label in rat blood was reported at 2 hr post injection. Value shown is %ID/g of tissue; format: ADME, organism-based; conditions: in vivo
Rattus norvegicus [19] = species on record: Rattus norvegicus; assay: Biodistribution of [123I]-label in rat spleen was reported at 0.33 hr post injection. Value shown is %ID/g of tissue; format: ADME, organism-based; conditions: in vivo
Rattus norvegicus [20] = species on record: Rattus norvegicus; assay: Biodistribution of [123I]-label in rat blood was reported at 4 hr post injection. Value shown is %ID/g of tissue; format: ADME, organism-based; conditions: in vivo
Rattus norvegicus [21] = species on record: Rattus norvegicus; assay: Distribution of [123I]-label in rat brain (striatum) was reported at 60 min post injection. Value shown is %ID/g of tissue; format: ADME, organism-based; conditions: in vivo, 1 h
[22] = Partition coefficient (logP); format: physicochemical; conditions: octanol/water
Rattus norvegicus [23] = species on record: Rattus norvegicus; assay: Biodistribution of [123I]-label in rat brain was reported at 0.33 hr post injection. Value shown is %ID/g of tissue; format: ADME, organism-based; conditions: in vivo
Rattus norvegicus [24] = species on record: Rattus norvegicus; assay: Biodistribution of [123I]-label in rat heart was reported at 1 hr post injection. Value shown is %ID/g of tissue; format: ADME, organism-based; conditions: in vivo
Rattus norvegicus [25] = species on record: Rattus norvegicus; assay: Distribution of [123I]-label in rat brain (frontal cortex) was reported at 60 min post injection. Value shown is %ID/g of tissue; format: ADME, organism-based; conditions: in vivo, 1 h
Rattus norvegicus [26] = species on record: Rattus norvegicus; assay: Distribution of [123I]-label in rat brain (posterior cortex) was reported at 60 min post injection. Value shown is %ID/g of tissue; format: ADME, organism-based; conditions: in vivo, 1 h
Rattus norvegicus [27] = species on record: Rattus norvegicus; assay: Biodistribution of [123I]-label in rat liver was reported at 24 h post injection. Value shown is %ID/g of tissue; format: ADME, organism-based; conditions: in vivo
Rattus norvegicus [28] = species on record: Rattus norvegicus; assay: Biodistribution of [123I]-label in rat liver was reported at 1 hr post injection. Value shown is %ID/g of tissue; format: ADME, organism-based; conditions: in vivo
Rattus norvegicus [29] = species on record: Rattus norvegicus; assay: Biodistribution of [123I]-label in rat intestine was reported at 24 hr post injection. Value shown is %ID/g of tissue; format: ADME, organism-based; conditions: in vivo
Rattus norvegicus [30] = species on record: Rattus norvegicus; assay: Biodistribution of [123I]-label in rat muscle was reported at 1 hr post injection. Value shown is %ID/g of tissue; format: ADME, organism-based; conditions: in vivo
Rattus norvegicus [31] = species on record: Rattus norvegicus; assay: Biodistribution of [123I]-label in rat brain was reported at 2 hr post injection. Value shown is %ID/organ; format: ADME, organism-based; conditions: in vivo
Sigma 2 receptor = assay: Receptor binding affinity against Sigma-2 receptor from guinea pig membranes; design: species or system Cavia porcellus
Rattus norvegicus [32] = species on record: Rattus norvegicus; assay: Distribution of [123I]-label in rat brain (striatum) was reported at 20 min post injection. Value shown is %ID/g of tissue; format: ADME, organism-based; conditions: in vivo
Rattus norvegicus [33] = species on record: Rattus norvegicus; assay: Biodistribution of [123I]-label in rat stomach was reported at 4 hr post injection. Value shown is %ID/g of tissue; format: ADME, organism-based; conditions: in vivo
Rattus norvegicus [34] = species on record: Rattus norvegicus; assay: Biodistribution of [123I]-label in rat stomach was reported at 24 hr post injection. Value shown is %ID/g of tissue; format: ADME, organism-based; conditions: in vivo
Rattus norvegicus [35] = species on record: Rattus norvegicus; assay: Biodistribution of [123I]-label in rat muscle was reported at 0.33 hr post injection. Value shown is %ID/g of tissue; format: ADME, organism-based; conditions: in vivo
D(2) dopamine receptor = D(2) dopamine receptor (Homo sapiens, UniProt P14416); assay: In vitro binding affinity for Dopamine receptor D2
Sequence of D(2) dopamine receptor (P14416 whole entry): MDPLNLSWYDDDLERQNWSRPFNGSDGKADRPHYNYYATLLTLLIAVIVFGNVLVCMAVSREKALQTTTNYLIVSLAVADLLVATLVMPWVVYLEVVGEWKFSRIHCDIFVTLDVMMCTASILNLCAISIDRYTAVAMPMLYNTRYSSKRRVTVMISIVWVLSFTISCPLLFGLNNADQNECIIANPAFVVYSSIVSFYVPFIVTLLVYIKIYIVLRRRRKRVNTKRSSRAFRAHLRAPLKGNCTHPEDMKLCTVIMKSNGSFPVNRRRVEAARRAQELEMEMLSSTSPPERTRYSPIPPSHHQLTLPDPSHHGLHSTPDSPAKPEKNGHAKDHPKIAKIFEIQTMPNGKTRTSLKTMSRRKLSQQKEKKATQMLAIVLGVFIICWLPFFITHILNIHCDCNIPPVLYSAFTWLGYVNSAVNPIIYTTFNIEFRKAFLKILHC

Rattus norvegicus [36] = species on record: Rattus norvegicus; assay: Biodistribution of [123I]-label in rat thyroid was reported at 24 hr post injection. Value shown is %ID/organ; format: ADME, organism-based, Thyroid gland; conditions: in vivo
Rattus norvegicus [37] = species on record: Rattus norvegicus; assay: Biodistribution of [123I]-label in rat heart was reported at 0.33 hr post injection. Value shown is %ID/g of tissue; format: ADME, organism-based; conditions: in vivo
Rattus norvegicus [38] = species on record: Rattus norvegicus; assay: Biodistribution of [123I]-label in rat liver was reported at 4 hr post injection. Value shown is %ID/g of tissue; format: ADME, organism-based; conditions: in vivo
Rattus norvegicus [39] = species on record: Rattus norvegicus; assay: Biodistribution of [123I]-label in rat intestine was reported at 1 hr post injection. Value shown is %ID/g of tissue; format: ADME, organism-based; conditions: in vivo
Rattus norvegicus [40] = species on record: Rattus norvegicus; assay: Biodistribution of [123I]-label in rat liver was reported at 2 hr post injection. Value shown is %ID/g of tissue; format: ADME, organism-based; conditions: in vivo
Rattus norvegicus [41] = species on record: Rattus norvegicus; assay: Biodistribution of [123I]-label in rat heart was reported at 24 hr post injection. Value shown is %ID/g of tissue; format: ADME, organism-based; conditions: in vivo
Rattus norvegicus [42] = species on record: Rattus norvegicus; assay: Distribution of [123I]-label in rat brain (hippocampus) was reported at 60 min post injection. Value shown is %ID/g of tissue; format: ADME, organism-based; conditions: in vivo, 1 h
Rattus norvegicus [43] = species on record: Rattus norvegicus; assay: Distribution of [123I]-label in rat brain (medulla pons) was reported at 60 min post injection. Value shown is %ID/g of tissue; format: ADME, organism-based; conditions: in vivo, 1 h
Rattus norvegicus [44] = species on record: Rattus norvegicus; assay: Biodistribution of [123I]-label in rat blood was reported at 1 hr post injection. Value shown is %ID/g of tissue; format: ADME, organism-based; conditions: in vivo
Rattus norvegicus [45] = species on record: Rattus norvegicus; assay: Distribution of [123I]-label in rat brain (posterior cortex) was reported at 20 min post injection. Value shown is %ID/g of tissue; format: ADME, organism-based; conditions: in vivo

ID/g (Rattus norvegicus [1]): 1.64%
ID/g (Rattus norvegicus [2]): 6.59%
ID/g (Rattus norvegicus [3]): 0.81%
ID (Rattus norvegicus [4]): 0.09%
ID/g (Rattus norvegicus [5]): 1.18%
ID (Rattus norvegicus [6]): 0.34%
ID/g (Rattus norvegicus [7]): 1.09%
ID (Rattus norvegicus [8]): 0.3%
ID/g (Rattus norvegicus [9]): 0.05%
ID50 [10]: 0.01 mg/kg
ID (Rattus norvegicus [11]): 1.97%
ID/g (Rattus norvegicus [12]): 1.31%
ID/g (Rattus norvegicus [13]): 1.06%
ID (Rattus norvegicus [14]): 2.03%
ID (Rattus norvegicus [15]): 0.27%
ID/g (Rattus norvegicus [16]): 1.02%
ID (Rattus norvegicus [17]): 1.61%
ID/g (Rattus norvegicus [18]): 0.03%
ID/g (Rattus norvegicus [19]): 0.91%
ID/g (Rattus norvegicus [20]): 0.02%
ID/g (Rattus norvegicus [21]): 1.13%
logP [22]: 3.36
ID/g (Rattus norvegicus [23]): 1.06%
ID/g (Rattus norvegicus [24]): 1.21%
ID/g (Rattus norvegicus [25]): 1.29%
ID/g (Rattus norvegicus [26]): 1.51%
ID/g (Rattus norvegicus [27]): 0.55%
ID/g (Rattus norvegicus [28]): 0.45%
ID/g (Rattus norvegicus [29]): 0.74%
ID/g (Rattus norvegicus [30]): 0.29%
ID (Rattus norvegicus [31]): 2.01%
Ki (Sigma 2 receptor): 38.8 nM
ID/g (Rattus norvegicus [32]): 1.17%
ID/g (Rattus norvegicus [33]): 0.27%
ID/g (Rattus norvegicus [34]): 0.18%
ID/g (Rattus norvegicus [35]): 0.23%
Ki (D(2) dopamine receptor): > 10000 nM
ID (Rattus norvegicus [36]): 1.19%
ID/g (Rattus norvegicus [37]): 1.25%
ID/g (Rattus norvegicus [38]): 0.5%
ID/g (Rattus norvegicus [39]): 0.82%
ID/g (Rattus norvegicus [40]): 0.43%
ID/g (Rattus norvegicus [41]): 0.18%
ID/g (Rattus norvegicus [42]): 1.06%
ID/g (Rattus norvegicus [43]): 1%
ID/g (Rattus norvegicus [44]): 0.08%
ID/g (Rattus norvegicus [45]): 1.43%
Structure (SMILES): N#Cc1ccc(OCC2CCN(C/C=C/I)CC2)cc1
